Data as given in ChEMBL document CHEMBL1146215, “Computer-aided rational drug design: a novel agent (SR13668) designed to mimic the unique anticancer mechanisms of dietary indole-3-carbinol to block Akt signaling” (J Med Chem, 2007).
Blank lines part the entries; values can stand above or below the compound they belong to. Calls of active or inactive are those of the source. The calls are words filed in the database; no cut-off is given here.

How the values were obtained:
MCF7 [1] = experiment: Antitumor activity against MCF7 cells; assay type: functional, cell-based; settings: Homo sapiens
MCF7 [2] = experiment: Inhibition of tumor growth in MCF7 cells xenografted BALB/c mouse at 10 mg/kg/day, ip after 30 days; assay type: functional, Homo sapiens; settings: 720 h, route intraperitoneal
MCF7 [3] = experiment: Inhibition of tumor growth in MCF7 cells xenografted BALB/c mouse at 10 mg/kg/day, po after 30 days; assay type: functional, Homo sapiens; settings: MCF7, 720 h
[4] = target: Glycogen synthase kinase-3 beta (Homo sapiens) (UniProt P49841); experiment: Inhibition of GSK3-beta activity in PC3 cells; assay type: cell-based; settings: PC-3
PC-3 [5] = experiment: Inhibition of serum-stimulated AKT phosphorylation in PC3 cells; assay type: cell-based; settings: Homo sapiens
MDA-MB-468 = experiment: Inhibition of serum-stimulated AKT phosphorylation in MDA-MB-468 cells; assay type: cell-based; settings: Homo sapiens
Mus musculus [6] = experiment: Toxicity assessed as effect on fasting glucose level in mouse at 500 mg/kg/day, po after 14 days; assay type: organism-based; design: route oral; settings: in vivo, 336 h
Mus musculus [7] = experiment: Toxicity assessed as effect on body weight of mouse at 500 mg/kg/day, po after 14 days; assay type: organism-based; design: route oral; settings: in vivo, 336 h
[8] = target: RAC-alpha serine/threonine-protein kinase (Homo sapiens) (UniProt P31749); experiment: Inhibition of Akt1
[9] = target: RAC-gamma serine/threonine-protein kinase (Homo sapiens) (UniProt Q9Y243); experiment: Inhibition of Akt3
[10] = target: RAC-beta serine/threonine-protein kinase (Homo sapiens) (UniProt P31751); experiment: Inhibition of Akt2
Homo sapiens = species: Homo sapiens; experiment: Inhibition of PI3K
[11] = target: T1, 3-phosphoinositide-dependent protein kinase 1 (Homo sapiens) (UniProt O15530); experiment: Inhibition of PDK1
T1 sequence (whole entry): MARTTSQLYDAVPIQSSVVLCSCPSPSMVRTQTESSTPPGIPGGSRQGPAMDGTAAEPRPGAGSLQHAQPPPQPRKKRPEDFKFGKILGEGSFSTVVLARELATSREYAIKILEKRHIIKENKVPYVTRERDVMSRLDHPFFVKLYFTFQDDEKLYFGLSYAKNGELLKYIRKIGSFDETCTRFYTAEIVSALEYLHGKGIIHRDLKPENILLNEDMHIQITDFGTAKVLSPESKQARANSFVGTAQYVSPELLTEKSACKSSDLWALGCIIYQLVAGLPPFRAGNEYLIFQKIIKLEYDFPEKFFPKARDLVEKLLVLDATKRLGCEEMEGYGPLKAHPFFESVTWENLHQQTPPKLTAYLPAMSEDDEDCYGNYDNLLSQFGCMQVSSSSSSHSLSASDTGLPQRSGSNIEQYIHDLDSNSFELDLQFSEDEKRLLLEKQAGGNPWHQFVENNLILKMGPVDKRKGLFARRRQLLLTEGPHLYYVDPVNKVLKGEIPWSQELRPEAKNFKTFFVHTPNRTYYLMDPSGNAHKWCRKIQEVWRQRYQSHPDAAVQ

Rattus norvegicus [12] = experiment: Toxicity in Sprague-Dawley rat at 25 mg/kg/day, po after 14 days; assay type: organism-based; design: route oral; settings: in vivo, 336 h
Rattus norvegicus [13] = experiment: Toxicity in Sprague-Dawley rat at 75 mg/kg/day, po after 14 days; assay type: organism-based; design: route oral; settings: in vivo, 336 h
Rattus norvegicus [14] = experiment: Toxicity in Sprague-Dawley rat at 200 mg/kg/day, po after 14 days; assay type: organism-based; design: route oral; settings: in vivo, 336 h
Rattus norvegicus [15] = experiment: Toxicity in Sprague-Dawley rat at 600 mg/kg/day, po after 14 days; assay type: organism-based; design: route oral; settings: in vivo, 336 h
Mus musculus [16] = species: Mus musculus; experiment: Genotoxicity by mouse micronucleus test; assay type: toxicity, organism-based; settings: in vivo
MDA-MB-231 = experiment: Inhibition of tumor growth in MDA-MB-231 cells xenografted po dosed mouse; assay type: functional, organism-based; settings: Homo sapiens
PC-3 [17] = experiment: Inhibition of tumor growth in PC3 cells xenografted po dosed mouse; assay type: functional, organism-based; settings: Homo sapiens
SK-OV-3 = experiment: Inhibition of tumor growth in SKOV3 cells xenografted po dosed mouse; assay type: functional, organism-based; settings: Homo sapiens

RAC-gamma serine/threonine-protein kinase (Homo sapiens), sequence (Q9Y243 whole entry): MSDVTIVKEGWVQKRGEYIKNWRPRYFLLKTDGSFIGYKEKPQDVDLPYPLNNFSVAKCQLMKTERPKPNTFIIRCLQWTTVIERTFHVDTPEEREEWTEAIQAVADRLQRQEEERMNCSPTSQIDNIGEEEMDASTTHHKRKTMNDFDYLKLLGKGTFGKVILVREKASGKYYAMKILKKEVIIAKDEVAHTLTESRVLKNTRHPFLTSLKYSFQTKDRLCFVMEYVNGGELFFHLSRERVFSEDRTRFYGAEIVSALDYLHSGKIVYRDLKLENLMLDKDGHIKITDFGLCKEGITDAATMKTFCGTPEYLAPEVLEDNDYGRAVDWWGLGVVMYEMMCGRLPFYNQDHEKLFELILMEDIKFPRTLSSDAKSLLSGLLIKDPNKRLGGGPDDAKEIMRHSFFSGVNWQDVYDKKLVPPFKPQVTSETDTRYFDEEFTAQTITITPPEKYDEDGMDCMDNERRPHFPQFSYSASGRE
Glycogen synthase kinase-3 beta (Homo sapiens), sequence (P49841 whole entry, looked up): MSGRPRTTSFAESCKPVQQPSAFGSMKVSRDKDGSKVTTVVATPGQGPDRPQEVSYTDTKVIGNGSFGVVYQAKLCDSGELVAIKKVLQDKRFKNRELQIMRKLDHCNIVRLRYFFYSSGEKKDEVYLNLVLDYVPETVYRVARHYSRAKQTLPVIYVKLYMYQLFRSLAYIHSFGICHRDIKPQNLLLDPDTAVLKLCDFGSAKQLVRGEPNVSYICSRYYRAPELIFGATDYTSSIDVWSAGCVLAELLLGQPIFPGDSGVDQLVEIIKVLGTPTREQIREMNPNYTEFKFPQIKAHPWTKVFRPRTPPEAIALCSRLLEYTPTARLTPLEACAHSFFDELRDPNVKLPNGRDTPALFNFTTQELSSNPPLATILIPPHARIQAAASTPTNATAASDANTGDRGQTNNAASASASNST
RAC-alpha serine/threonine-protein kinase (Homo sapiens), sequence (P31749 whole entry): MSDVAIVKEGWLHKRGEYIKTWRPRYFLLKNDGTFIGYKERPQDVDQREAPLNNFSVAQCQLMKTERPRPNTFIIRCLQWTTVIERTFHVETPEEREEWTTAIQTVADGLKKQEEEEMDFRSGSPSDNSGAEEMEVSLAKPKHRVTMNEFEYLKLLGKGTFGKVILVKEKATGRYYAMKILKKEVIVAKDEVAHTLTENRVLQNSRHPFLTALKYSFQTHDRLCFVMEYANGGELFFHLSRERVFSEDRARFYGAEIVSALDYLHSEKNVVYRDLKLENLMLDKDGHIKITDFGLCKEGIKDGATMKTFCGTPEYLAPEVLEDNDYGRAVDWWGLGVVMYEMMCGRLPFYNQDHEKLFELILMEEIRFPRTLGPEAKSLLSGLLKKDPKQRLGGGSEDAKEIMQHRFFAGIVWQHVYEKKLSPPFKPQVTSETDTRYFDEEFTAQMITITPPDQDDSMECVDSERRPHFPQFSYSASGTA
RAC-beta serine/threonine-protein kinase (Homo sapiens), sequence (P31751 whole entry): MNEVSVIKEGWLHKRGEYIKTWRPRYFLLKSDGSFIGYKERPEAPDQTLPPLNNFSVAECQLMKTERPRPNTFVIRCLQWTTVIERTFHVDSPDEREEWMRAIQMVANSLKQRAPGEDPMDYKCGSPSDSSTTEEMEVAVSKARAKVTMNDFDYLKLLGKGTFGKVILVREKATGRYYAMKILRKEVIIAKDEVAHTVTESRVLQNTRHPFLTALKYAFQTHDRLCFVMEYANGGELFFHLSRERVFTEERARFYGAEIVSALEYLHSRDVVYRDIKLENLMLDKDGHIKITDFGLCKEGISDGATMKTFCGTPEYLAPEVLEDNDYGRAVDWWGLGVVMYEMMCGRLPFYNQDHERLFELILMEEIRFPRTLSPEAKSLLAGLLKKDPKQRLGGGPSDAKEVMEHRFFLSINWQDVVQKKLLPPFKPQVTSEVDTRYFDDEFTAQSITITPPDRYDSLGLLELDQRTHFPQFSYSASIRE

IC50 (MCF7 [1]): 1750 nM
Structure (SMILES): CCOC(=O)c1ccc2[nH]cc(Cc3c[nH]c4ccc(C(=O)OCC)cc34)c2c1

IC50 (MCF7 [1]): > 10000 nM
Structure (SMILES): CN(C)C(=O)c1ccc2[nH]cc(Cc3c[nH]c4ccc(C(=O)N(C)C)cc34)c2c1

IC50 (MCF7 [1]): 110 nM
Structure (SMILES): CCOC(=O)Oc1c2[nH]c3ccc(C(=O)OCC)cc3c2cc2c1[nH]c1ccc(C(=O)OCC)cc12

Structure (SMILES): CCOC(=O)c1ccc2[nH]c3c(C(F)(F)C(F)(F)C(F)(F)F)c4[nH]c5ccc(C(=O)OCC)cc5c4cc3c2c1
IC50 (MCF7 [1]): 90 nM

IC50 (MCF7 [1]): 3300 nM
Structure (SMILES): C=C(c1c[nH]c2ccccc12)c1c[nH]c2ccccc12

IC50 (MCF7 [1]): 80 nM
Structure (SMILES): CCOC(=O)Oc1c2[nH]c3ccccc3c2cc2c1[nH]c1ccccc12
inhibition in vivo at 10 mg/kg/day (MCF7 [2]): 43%
inhibition in vivo at 10 mg/kg/day (MCF7 [3]): 26%

IC50 (MCF7 [1]): > 10000 nM
Structure (SMILES): CS(=O)(=O)c1ccc2[nH]cc(Cc3c[nH]c4ccc(S(C)(=O)=O)cc34)c2c1

IC50 (MCF7 [1]): 940 nM
Structure (SMILES): c1ccc2[nH]c(Cc3cc4ccccc4[nH]3)cc2c1

IC50 (MCF7 [1]): 5500 nM
Structure (SMILES): c1ccc2c(Cc3c[nH]c4ccccc34)c[nH]c2c1 [ARUNDINE]

IC50 (MCF7 [1]): > 10000 nM
Structure (SMILES): CC(C)(c1c[nH]c2ccccc12)c1c[nH]c2ccccc12

IC50 (MCF7 [1]): 190 nM
Activity [4]: Active
Activity [8]: inactive
Activity [9]: inactive
Activity [10]: inactive
Activity (Homo sapiens): inactive
Activity [11]: inactive
Structure (SMILES): CCOC(=O)c1ccc2[nH]c3c(OC)c4[nH]c5ccc(C(=O)OCC)cc5c4cc3c2c1 [SR-13668]
Activity (PC-3 [5]): Active
Activity (MDA-MB-468): Active
Activity (Mus musculus [6]): Active
Activity (Mus musculus [7]): Active
Activity (Rattus norvegicus [12]): Non-toxic
Activity (Rattus norvegicus [13]): Non-toxic
Activity (Rattus norvegicus [14]): Non-toxic
Activity (Rattus norvegicus [15]): Non-toxic
Activity (Mus musculus [16]): Non-toxic
Activity (MDA-MB-231): Active
Activity (PC-3 [17]): Active
Activity (SK-OV-3): Active

IC50 (MCF7 [1]): > 10000 nM
Structure (SMILES): O=C(O)c1ccc2[nH]cc(Cc3c[nH]c4ccc(C(=O)O)cc34)c2c1

IC50 (MCF7 [1]): > 10000 nM
Structure (SMILES): c1cc(-c2c[nH]c3ccccc23)cc(-c2c[nH]c3ccccc23)c1
